Reference: patent publication US20200009253A1, “Compositions and Methods for Treatment of Infections” (Thompson Cooper Laboratories, LLC, priority 2011, published 2020)

Columns and labels:
[1] = Solubility of carbamide peroxide in alcohols; format: physicochemical; settings: solid carbamide peroxide
Experimental: On a weight basis, 18.5% carbamide peroxide, 3.0% glycerol, 73.1% ethyl alcohol, 4.5% luviskol VA 64-polyvinylpyrrolidone vinyl alcohol, and 0.9% Klucel HF, were mixed in a vessel and allowed to thicken. The source of peroxide was solid carbamide peroxide, which is only soluble in isopropyl alcohol to about 10% and in ethanol to about 20%, therefore luviskol VA 64-polyvinylpyrrolidone vinyl alcohol is added to supersaturate the carbamide peroxide, and glycerol is added to retain the carbamide peroxide in solution following ethanol evaporation.

[2] = Whitening effect of the nail after brushing the composition onto the nail surface (shows peroxide penetration); format: in vivo, human
Text: (§1) Lower levels of hydrogen peroxide in the present invention can be used to treat infected skin or mucous membranes such as canker sores. Depending on the concentration of peroxide, penetration through a nail will also elicit sensations in certain subjects ranging from tingling to burning, which may be mildly painful at higher concentrations. Embodiments of the invention comprising an optional local anesthetic may be appropriate when using such higher concentrations. Effectiveness may be measured by a reduction of, or complete eradication of, the nail fungus over the course of treatment, and further evidenced by healthy nail growth. On a weight basis, 9% hydrogen peroxide, 21% water, 69.5% isopropyl alcohol, and 0.5% Klucel HF (a thickening agent, a hydroxypropylcellulose polymer), were mixed in a vessel and allowed to thicken. (The source of the peroxide was a 30% peroxide solution.) The composition could easily be brushed onto a nail surface, which dried in approximately 1 minute, and the residual polymer could subsequently be removed by washing in water. […] On a weight basis, 6% hydrogen peroxide, 6% water, 87.5% isopropyl alcohol, and 0.5% Klucel HF, were mixed in a vessel and allowed to thicken. […] The resulting composition differed from that of Example 2a in that there was no isopropyl alcohol or any other highly volatile solvent, the quantity thereof being replaced with water. […]

[3] = Sensation (tingling, burning, pain) under the nail after application; format: in vivo, human; settings: 3% in a solvent system containing a highly volatile solvent; after 15-30 minutes
Text: as §1

NC(N)=O.OO [carbamide peroxide]
solubility in ethanol [1]: about 20%
solubility in isopropyl alcohol [1]: about 10%

OO [hydrogen peroxide, Hydrogen peroxide]
visual effect on normal finger nail ([2]; 3% aqueous concentration, thin film via a brush): no visual effect
visual effect on nail ([2]; same amount and 3% concentration in a solvent system containing a highly volatile solvent): signs of whiteness
sensation after application [3]: a slight tingling sensation may sometimes be felt
